The test system of one data set is LOX. Nature of the data set: LOX fluorescent activity assay, in vivo (plasma of treated tumor-bearing mice). The settings on record: BAPN-treated and antibody-treated mice, terminal bleeds. The text has this:
LOX activity may be measured in a number of ways, using a soluble elastin or soluble collagen with labeled lysine as a substrate. Details of an activity assay are given in Royce et al., “Copper metabolism in mottled mouse mutants. The effect of copper therapy on lysyl oxidase activity in brindled (Mobr) mice,” Biochem J. 1982 Feb. 15; 202(2): 369-371. Especially preferred is a […] assay. One is described in Palamakumbura, et al. “A fluorometric assay for detection of lysyl oxidase enzyme activity in biological samples,” Anal Biochem. 2002 Jan. 15; 300(2):245-51. This method was used in the present work to assess LOX inhibition by BAPN and by anti-LOX antibody in cells in culture (using conditioned media) and in mice (using plasma), in a 96-well format.
LOX activity assay. The original method is described in Folgelgren, et al. J. Biol. Chem. 280:24690-24697 (2005). For the in vivo data, terminal bleeds were taken at the end of the experiment described above from untreated (control) mice, 2 and 3 wk BAPN mice, and antibody-treated mice. […] For the in vitro data, 50 μl of conditioned phenol-red-free medium was taken from cells incubated for 24 h under conditions of hypoxia. Samples were incubated overnight at 37° C. with different concentrations of BAPN or with purified LOX antibody at a concentration equivalent to 20 mg kg^−1 dose. Again, 0=fluorescent reading for 500 μM BAPN.

For a further data set, the system named is human cancer cells. Nature of the data set: Cell viability. Format: cell-based. The settings on record: data not shown.
Data set [1] concerns fibronectin null mouse embryonic fibroblasts. Description: In vitro invasion of fibronectin null cells. Format: cell-based. On the procedure: FIG. 8 is a graph (A) showing fibronectin null mouse embryonic fibroblasts subjected to in vitro invasion assays; untreated invasion was compared with that of cells transfected with LOX antisense oligos (Antisense) or incubated with BAPN, and (B) Adhesion of SiHa cells expressing DSRED to matrix was assessed over time.
A role for fibronectin (FN) was sought, because it was strongly associated with LOX expression in the breast cancer microarray data set that was analyzed (data not shown), is reported to regulate invasion, bind to integrins and interact with LOX, and is hypoxia induced. […] FAK phosphorylation could be induced in the cells expressing LOX shRNA by transfection with mature LOX (but not catalytically dead LOX), confirming a role for LOX in FAK phosphorylation. […] It is proposed here that this is because LOX increases fibrillar collagen, which is a ligand for b1 integrin. Other integrin pathways have been reported to mediate hypoxia-induced invasion.

Another data set concerns FAK. Nature of the data set: FAK phosphorylation (phospho-FAK immunoblot). The following applies: cells expressing LOX shRNA transfected with mature LOX. Format: cell-based. The source says:
Acquisition of motility is required before cells can migrate and invade. Invasive cell migration is a multi-step process^17 that commences with pseudopod protrusion at the leading edge driven by actin polymerization, resulting in focal adhesion formation and the activation of integrin and focal adhesion kinase (FAK). […] LOX protein expression extended along hairlike fibers protruding from the cell surface into the collagen matrix. […] Remodeling of the actin cytoskeleton with increased formation of stress fibers and focal adhesion in MDA231 control cells particularly in hypoxia was observed, which were not seen in cells expressing LOX shRNA.
A role for fibronectin (FN) was sought, because it was strongly associated with LOX expression in the breast cancer microarray data set that was analyzed (data not shown), is reported to regulate invasion, bind to integrins and interact with LOX, and is hypoxia induced. […] FAK phosphorylation could be induced in the cells expressing LOX shRNA by transfection with mature LOX (but not catalytically dead LOX), confirming a role for LOX in FAK phosphorylation. […]
Methods were performed as previously described. […] LOX was analyzed by using a rabbit polyclonal antibody raised against a synthetic peptide of human LOX (EDTSCDYGYHRRFA (SEQ ID NO:1); Open Biosystems). […] Quantification was performed with ImageQuant software.

Data set [2] concerns MDA231 human breast cancer cells. Description: Pulmonary foci after i.v. MDA231 cells with daily conditioned media injections. Format: in vivo, mice. The following applies: i.v. tumor cells with daily CM injections. The text has this: To determine if the effect of increased circulating LOX levels on the growth of tumor cell foci at metastatic sites was independent of the initial steps of metastasis from a primary tumor (Steeg (2006) Nat. Med. 12:895-904), we intravenously injected MDA231 human breast cancer cells that expressed either LOX-targeting shRNA or a scrambled control sequence (Wt). We also provided circulating LOX by daily intraperitoneal injections of conditioned media (CM) derived from Wt or LOX shRNA cells exposed to hypoxic (H) or normoxic (N) conditions for 24 hours in vitro. […] CM from aerobic LOX shRNA cells had the lowest LOX activity (FIG. 19B).
Local secretion of LOX by Wt tumor cells could sustain growth of Wt foci in the absence of exogenous circulating LOX, although larger foci were present when circulating LOX from hypoxic Wt CM was supplied (FIG. 19F-G). Since circulating LOX levels are highest in mice prior to metastasis formation from a primary tumor (FIG. 19A), we injected CM daily for 2 weeks prior to i.v. tumor cell injection (FIG. 19B).
Conditioned media (CM) consisted of serum-free Modified Eagle's Medium cultured on MDA231 LOX shRNA or control cells incubated in normoxia (N; 21% O2) or hypoxia (H; 2% O2) for 24 h. CM was passed through a 0.22-μm filter and 300-μl were injected intraperitoneally daily into mice (Kaplan (2005), supra). […]

The subject of the next data set is MMP-2. Nature of the data set: MMP gelatin zymography of RAW macrophages incubated with conditioned media. The following applies: BMDCs incubated 24 h with CM from hypoxic Wt cells. Format: cell-based. On the procedure:
We examined changes in BMDC MMP activity induced by CM (FIG. 21C). MMP-9 activity was not affected by LOX or FN alone, but was elevated in CM supplemented with FN regardless of LOX status. This is consistent with our finding that FN has a stronger influence than LOX on BMDC migration.
Gelatin enzymography was performed to assess MMP activity as described. Protein concentrations were quantified to ensure equal loading.

Molecules are shown by their SMILES.

Regarding `N#CCCN` [BAPN, β-aminoproprionitrile], the “LOX activity levels in the blood” value with LOX is on record as “Reduced LOX activity levels”. Further, the cell viability result in the data set on human cancer cells is “Neither treatment with BAPN nor treatment with BCS affected cell viability”. For the same compound, the “invasion of FN-null cells” value in data set [1] was “strongly inhibited invasion (similarly to BAPN addition)”. Moreover, the “FAK phosphorylation induced by transfection with mature LOX” value in the data set on FAK was “could be prevented”. In addition, the pulmonary foci formation entry in data set [2] was “diminished foci formation”. For the same compound, the MMP-2 activity entry with MMP-2 is on record as “reduced”.
